Results taken from patent US20060116401A1, “Antibacterial compounds” (AstraZeneca AB, priority 2002, published 2006).
≈ marks a conversion by molar mass, not a printed value.

Experiments:
Type in all cases: cell-based
Haemophilus influenzae = assay: MIC, fastidious Gram negative organisms in Mueller-Hinton broth; details: Mueller-Hinton broth with hemin and NAD, aerobic, 24 hours, 37° C.
Procedure: (§1) The following results were obtained on a standard in-vitro test system The activity is described in terms of the minimum inhibitory concentration (MIC) determined by the agar-dilution technique with an inoculum size of 10^4 CFU/spot. Typically, compounds are active in the range 0.01 to 256 μg/ml.
(§2) Streptococci and enterococci were tested on agar supplemented with 5% defibrinated horse blood, an inoculum of 10^4 CFU/spot and an incubation temperature of 37° C. in an atmosphere of 5% carbon dioxide for 48 hours—blood is required for the growth of some of the test organisms. Fastidious Gram negative organisms were tested in Mueller-Hinton broth, supplemented with hemin and NAD, grown aerobically for 24 hours at 37° C., and with an innoculum of 5×10^4 CPU/well.

Moraxella catarrhalis = assay: as above; details: Mueller-Hinton broth with hemin and NAD, aerobic, 24 hours, 37° C.
Procedure: as §1, §2

Streptococcus pneumoniae = assay: MIC, agar with 5% defibrinated horse blood, streptococci; details: agar + 5% horse blood, 10^4 CFU/spot, 37° C., 5% carbon dioxide, 48 hours
Procedure: as §1, §2

[1] = test system: Staphylococcus aureus MRQR (methicillin resistant and quinolone resistant); assay: MIC, agar dilution, staphylococci (MRQR strain); details: 10^4 CFU/spot, 37° C., 24 hours
Procedure: as §1
(§3) Staphylococci were tested on agar, using an inoculum of 10^4 CFU/spot and an incubation temperature of 37° C. for 24 hours—standard test conditions for the expression of methicillin resistance.

[2] = test system: Staphylococcus aureus MSQS (methicillin sensitive and quinolone sensitive); assay: MIC, agar dilution, staphylococci (MSQS strain); details: 10^4 CFU/spot, 37° C., 24 hours
Procedure: as §1, §3

Enterococcus faecium = assay: MIC, agar with 5% defibrinated horse blood, enterococci; details: agar + 5% horse blood, 10^4 CFU/spot, 37° C., 5% carbon dioxide, 48 hours
Procedure: as §1, §2

[3] = test system: Linezolid Resistant Streptococcus pneumoniae; assay: MIC, agar with 5% defibrinated horse blood, linezolid resistant streptococci; details: agar + 5% horse blood, 10^4 CFU/spot, 37° C., 5% carbon dioxide, 48 hours
Procedure: as §1, §2

O=C1O[C@@H](Cn2ccnn2)CN1c1ccc(-c2ccc(C3=NOC(CO)C3)c(F)c2)c(F)c1 (stereo partly drawn) [Example 4, (5R)-3-{2,3′-Difluoro-4′-[5-(hydroxymethyl)-4,5-dihydroisoxazol-3-yl]-1,1′-biphenyl-4-yl}-5-(1H-1,2,3-triazol-1-ylmethyl)-1,3-oxazolidin-2-one]
MIC (Haemophilus influenzae): 4 µg/mL (≈ 8.78 µM) | MIC (Moraxella catarrhalis): 0.5 µg/mL (≈ 1.1 µM) | MIC (Streptococcus pneumoniae): 0.13 µg/mL | MIC [1]: 0.5 µg/mL (≈ 1.1 µM) | MIC [2]: 0.5 µg/mL (≈ 1.1 µM) | MIC (Enterococcus faecium): 0.5 µg/mL | MIC [3]: 1 µg/mL
